The source of these data is patent US5538975A, “1,3-oxathiolane nucleoside compounds and compositions” (BioChem Pharma, Inc., priority 1991, dated 1996).

The test system of series [1] is HIV-1 strain RF. Put plainly: microbe, parasite or virus in culture. Particulars: Human immunodeficiency virus 1, MT4, in Homo sapiens, read-out: 50% Antiviral Activity, Formazan. The procedure:
Antiviral activity of the compound of Example 1 was determined against HIV-1 in the following cell lines.
MT-4 cells, a human T-cell leukaemia cell line, infected with HIV-1 strain RF.
Antiviral activity in C8166 cells was determined by inhibition of syncytium formation (Tochikura et al Virology, 164, 542-546) and in MT-4 cells by inhibition of formazan conversion [Baba et al, Biochem Biophys Res Commun., 142, pp. 128-134 (1987); Mossman, J. Immun. Meth., 65, pp. 55-57 (1983)]. Antiviral activities were also determined by analyzing the amount of HIV p24 antigen synthesized in the presence and absence of enantiomers.

The next series relates to CD4 cell lines. Put plainly: Cytotoxicity of the enantiomers (general statement). In kind it is cell-based. Particulars: in words.
A further series in a line: in vitro. Particulars: human. On the procedure: The cytotoxicities of the compounds of Example 1 and the racemic compound (Intermediate 1) were determined in two CD4 cell lines: H9 and CEM.
Compounds for test were serially diluted from 100 μg/ml to 0.3 μg/ml (final concentrations) in 96 well microtitre plates. 3.6×10^4 cells were inoculated into each well of the plates including drug-free controls. After incubation at 37° C. for 5 days, the viable cell count was determined by removing a sample of cell suspension and counting trypan blue excluding cells in a hemocytometer.

In series [2] the test system is HIV p24 antigen (HIV-1 RF). Put plainly: Inhibition of HIV p24 antigen synthesis in C8166 cells. Type of series: cell-based, HIV-1; C8166 human T-lymphoblastoid cell line.
The subject of series [3] is HIV-1 strain RF. Put plainly: Antiviral activity, inhibition of syncytium formation in C8166 cells. In kind it is cell-based, HIV-1; C8166 human T-lymphoblastoid cell line.

The term CC50 denotes the concentration giving 50% cytotoxicity.

≈ marks a conversion by molar mass, not a printed value. Like-named read-outs stand apart in the source and are kept apart here.

For `Nc1nc(=O)n([C@@H]2CS[C@H](CO)O2)cc1F` [(-)-enantiomer, (-)-4-amino-5-fluoro-1-(2-hydroxymethyl-1,3-oxathiolan-5-yl)-(1H)-pyrimidin-2-one], the IC50 in the series with HIV-1 strain RF [1] was 0.14 µg/mL (≈ 0.566 µM). Besides, the cytotoxicity entry in the series on CD4 cell lines is given as “unexpectedly low cytotoxicity”. The “activity relative to the (+)-enantiomer” value in the series with HIV was “much more active than the (+)-enantiomer”. Besides, the cytotoxic concentration (CC50) at 120 h in “in vitro” (cem cells) was determined as 148 µg/mL (≈ 599 µM); in “in vitro” (h9 cells), 296 µg/mL (≈ 1200 µM).
Regarding `Nc1nc(=O)n([C@H]2CS[C@@H](CO)O2)cc1F` [(+)-enantiomer, (+)-cis-2-hydroxymethyl-5-(5'-fluorocytosin-1'-yl) -1,3-oxathiolane], the IC50 with HIV-1 strain RF [1] was greater than 1 µg/mL; in series [2] (Human immunodeficiency virus 1, C8166 cells, virus RF, read-out: 50% Inhibition HIV p24 Synthesis), 0.1 µg/mL (≈ 0.404 µM); in the series with HIV-1 strain RF [3] (Human immunodeficiency virus 1, C8166 cells, HIV-1 RF, read-out: 50% Antiviral Activity, Inhibition of syncytium formation), 0.04 µg/mL (≈ 0.162 µM). Further, the cytotoxicity result in the series with CD4 cell lines is recorded as “unexpectedly low cytotoxicity”. Moreover, the CC50 at 120 h in the series “in vitro” (cem cells) came to 217 µg/mL (≈ 878 µM); in the series “in vitro” (h9 cells), 334 µg/mL (≈ 1350 µM).
For `Nc1nc(=O)n([C@@H]2CS[C@H](CO)O2)cc1F` (relative stereo) [Intermediate 1, (±)-Cis-2-hydroxymethyl-5-(5'-fluorocytosin-1'-yl)1,3-oxathiolane], the IC50 in the series on HIV-1 strain RF [1] is 0.065 µg/mL (≈ 0.263 µM). In addition, the cytotoxic concentration (CC50) at 120 h turned out to be 173 µg/mL (≈ 700 µM) in “in vitro” (cem cells) and 232 µg/mL (≈ 938 µM) in the series “in vitro” (h9 cells).
Turning to `Cc1cn([C@H]2C[C@H](N=[N+]=[N-])[C@@H](CO)O2)c(=O)[nH]c1=O` [AZT, 3'-azido-3'-deoxythymidine, reference compound], the IC50 in series [2] (Human immunodeficiency virus 1, C8166, read-out: 50% Inhibition HIV p24 Synthesis) came out at 0.017 µg/mL (≈ 0.0636 µM); in the series on HIV-1 strain RF [3] (Human immunodeficiency virus 1, C8166, read-out: 50% Antiviral Activity, Inhibition of syncytium formation), 0.0038 µg/mL (≈ 0.0142 µM).
